Assay results taken from patent US7795296B2, “Crystals of non-natural-type stereoisomer salt of monatin and use thereof” (Ajinomoto Co., Inc., priority 2001, dated 2010).
Where two headings read alike, the source gives them in different places. One block for each compound: values may come before it.

Legend:
[1] = hydrochlorides, reported by K. Nakamura et al., cited from earlier work
[2] = test system: panelists; assay: Intensity of sweet taste, tasted against a 5% aqueous sucrose standard solution; assay type: in vivo; conditions: for Degree of sweet taste / intensity of sweet taste: salt crystals; for Degree of sweet taste / intensity of sweet taste / Sweetness Intensity: as compared with a 5% aqueous solution of sucrose
Procedure: Intensity of sweet taste (sweetening potency; degree of sweet taste) of the crystals of each stereoisomer obtained can be determined by comparing with a 5% aqueous solution of sucrose, but a method for the determination of intensity of sweet taste is not limited thereto. “Sweet taste” intensity of each stereoisomer obtained was measured by the following method. A 0.05% aqueous solution of each stereoisomer was prepared and diluted to an appropriate extent to prepare an aqueous solution of a sample of a predetermined concentration. Separately, a 5% aqueous solution of sucrose was prepared and used as a standard solution. The diluted aqueous solution of the sample and the standard aqueous sucrose solution were tasted one after another and the sweetness rate was determined from the sample concentration where the intensities of sweetness were noted to be same. Seven panelists performed the evaluation.

[3] = Comparison of thermostability of the crystals (120° C., open vial, decomposed products by HPLC); assay type: physicochemical; conditions: area % to residual monatin
Procedure: Comparison of Thermostability of the Crystals.
Each 50 mg of the crystals and the amorphous solid prepared by the above-mentioned methods were placed in a 4-ml vial and preserved (kept) at the temperature of 120° C. At that time, the vial was made in an open state. Each 2 mg of the sample were taken out after retention time of 3 hours, 7 hours and 24 hours and the rate (ratio) of decomposed products were determined by means of HPLC (high-performance liquid chromatography).

[4] = samples crystallized and purified as a sodium salt
[5] = samples prepared by HPLC, purified by ion-exchange resin and freeze-dried as an ammonium salt

Structure (SMILES): Cl.N[C@@H](C[C@](O)(Cc1c[nH]c2ccccc12)C(=O)O)C(=O)O
- Sweet taste, in words [1]: almost no sweet taste
- Sweet taste, in words ([1]; listed as synthetic (2S,4R) monatin substance): slightly sweet taste

Structure (SMILES): NC(CC(O)(Cc1c[nH]c2ccccc12)C(=O)O)C(=O)[O-].[Na+] (centres unmarked) [Example 11]
- Degree of sweet taste / intensity of sweet taste [2]: about 1300 fold

Structure (SMILES): N[C@@H](C[C@@](O)(Cc1c[nH]c2ccccc12)C(=O)O)C(=O)O [(2S, 4S), (2S,4S)-2-amino-4-carboxy-4-hydroxy-5-(3-indolyl)-pentanoic acid]
- Intensity of the sweet taste ([2]; Example 1 ammonium salts, amorphous solid, 5% aqueous sucrose standard, seven panelists): about 300 fold
- Sweetness Intensity [2, 4]: ca. 50
- Sweetness Intensity [2, 5]: ca. 300
- Intensity of sweet taste, comparison in words ([2]; comparison among the four stereoisomers and with reported data): far lower than the data which were reported already
- Degree of sweet taste / intensity of sweet taste [2]: about 50 fold

- Rate of Decomposed Product A (%) ([3]; retention time 3 hours): 1.9%
- Rate of Decomposed Product B (%) ([3]; retention time 3 hours): 1.2%
- Rate of Decomposed Product A (%) ([3]; retention time 7 hours): 3.8%
- Rate of Decomposed Product B (%) ([3]; retention time 7 hours): 2.3%
- Rate of Decomposed Product A (%) ([3]; retention time 24 hours): 11.8%
- Rate of Decomposed Product B (%) ([3]; retention time 24 hours): 7.6%
Structure (SMILES): N.N[C@H](C[C@](O)(Cc1c[nH]c2ccccc12)C(=O)O)C(=O)O [Ammonium salt crystals]

Structure (SMILES): Cl.N[C@@H](C[C@@](O)(Cc1c[nH]c2ccccc12)C(=O)O)C(=O)O [synthetic (2S,4S) monatin substance]
- Sweet taste, in words [1]: sweet potency equivalent to that of the a natural specimen of monatin

Structure (SMILES): N[C@H](CC(O)(Cc1c[nH]c2ccccc12)C(=O)O)C(=O)O (stereo partly drawn) [(2R, 4S)]
- Sweetness Intensity [2, 4]: ca. 1300
- Sweetness Intensity [2, 5]: ca. 800

- Rate of Decomposed Product A (%) ([3]; retention time 3 hours): 2.0%
- Rate of Decomposed Product B (%) ([3]; retention time 3 hours): 2.1%
- Rate of Decomposed Product A (%) ([3]; retention time 7 hours): 3.8%
- Rate of Decomposed Product B (%) ([3]; retention time 7 hours): 4.3%
- Rate of Decomposed Product A (%) ([3]; retention time 24 hours): 5.3%
- Rate of Decomposed Product B (%) ([3]; retention time 24 hours): 11.7%
Structure (SMILES): N[C@H](CC(O)(Cc1c[nH]c2ccccc12)C(=O)O)C(=O)O (some centres unmarked) [Free substance crystals]
